According to patent publication US20240101576A1, “HETEROCYCLIC INHIBITORS OF EGFR AND/OR HER2, FOR USE IN THE TREATMENT OF CANCER” (Scorpion Therapeutics, Inc., priority 2020, published 2024):

Tests used:
Assay type in all cases: cell-based
[1] = molecular target: T1, EGFR exon 20 ASV Ins V769_D770 (Ba/F3 cells) (Homo sapiens, UniProt P00533, INS769ASV); experiment: Inhibitor activity on EGFR-dependent cell growth (CellTiter-Glo, 72 h), Ba/F3 EGFR exon 20 ASV Ins; conditions: read-out: BaF3 ASV IC50
T1 construct: expressed in transfected cells; host or cells: Ba/F3 (murine pro-B cells), retroviral transduction, puromycin selection, IL3-independent pool
T1 sequence (P00533 with tags, fused parts or gaps INS769ASV): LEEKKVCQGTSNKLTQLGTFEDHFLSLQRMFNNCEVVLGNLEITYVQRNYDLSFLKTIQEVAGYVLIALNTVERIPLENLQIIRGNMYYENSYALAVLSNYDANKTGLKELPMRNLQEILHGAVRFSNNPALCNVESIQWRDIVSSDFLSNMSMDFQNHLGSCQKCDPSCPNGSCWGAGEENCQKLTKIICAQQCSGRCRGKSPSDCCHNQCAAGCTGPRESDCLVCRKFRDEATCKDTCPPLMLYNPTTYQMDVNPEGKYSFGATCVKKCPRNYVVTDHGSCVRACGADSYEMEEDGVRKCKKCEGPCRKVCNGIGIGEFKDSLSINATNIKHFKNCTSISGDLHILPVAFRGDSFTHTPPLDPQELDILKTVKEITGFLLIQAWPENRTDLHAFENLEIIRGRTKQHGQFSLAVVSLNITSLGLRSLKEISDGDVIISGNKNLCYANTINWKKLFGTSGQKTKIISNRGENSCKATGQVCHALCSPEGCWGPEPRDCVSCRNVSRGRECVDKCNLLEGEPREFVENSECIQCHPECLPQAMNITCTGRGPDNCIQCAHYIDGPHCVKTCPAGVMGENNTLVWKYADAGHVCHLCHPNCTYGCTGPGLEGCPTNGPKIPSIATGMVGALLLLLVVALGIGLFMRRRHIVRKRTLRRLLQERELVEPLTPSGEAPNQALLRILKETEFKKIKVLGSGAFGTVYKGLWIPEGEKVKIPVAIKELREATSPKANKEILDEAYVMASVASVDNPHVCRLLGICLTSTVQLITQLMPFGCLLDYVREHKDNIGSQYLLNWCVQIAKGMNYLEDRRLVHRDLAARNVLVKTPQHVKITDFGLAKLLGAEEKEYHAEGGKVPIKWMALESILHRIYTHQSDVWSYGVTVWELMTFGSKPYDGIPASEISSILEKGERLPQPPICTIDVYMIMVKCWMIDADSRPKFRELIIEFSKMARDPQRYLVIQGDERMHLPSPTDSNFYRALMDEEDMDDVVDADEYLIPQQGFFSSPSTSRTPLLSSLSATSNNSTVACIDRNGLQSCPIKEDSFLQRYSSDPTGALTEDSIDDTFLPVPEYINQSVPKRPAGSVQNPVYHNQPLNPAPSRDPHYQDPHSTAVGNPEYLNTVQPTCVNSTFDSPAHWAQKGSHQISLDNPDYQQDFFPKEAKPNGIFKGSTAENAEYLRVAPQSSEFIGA
From the text: (§1) Example A. Inhibitor Activity on EGFR-Dependent Cell Growth
(§2) Cell lines are generated by transducing Ba/F3 cells with retroviruses containing vectors with EGFR WT, EGFR L858R, EGFR exon 19del, EGFR L858R/C797S, EGFR exon 20 NPG Ins D770_N771, EGFR exon 20 ASV Ins V769_D770, EGFR exon 20 SVD Ins D770_N771, or EGFR exon 20 FQEA Ins A763_V764 genes and a puromycin selection marker. Transduced cells are selected with puromycin for 7 days and are then be transferred into culture media without Interleukin 3 (IL3). EGFR WT cells are maintained with supplemental EGF. Surviving cells are confirmed to express EGFR by Western blot and maintained as a pool. The IC50 date were included in Table 6 and Table 7.
(§3) 1.1 Cells are harvested from flask into cell culture medium and the cell number counted.
(§4) 1.2 Cells are diluted with culture medium to the desired density and 40 μL of cell suspension is added into each well of 384-well cell culture plate and the seeding density is 800 (FQEA, exon 19del), 600 (WT, NPG, L858R/C797S), or 400 (ASV, SVD, L858R) cells/well.
(§5) 2 Compound Preparation and Treatment
(§6) 2.1 Test compounds are dissolved to 10 mM in a DMSO stock solution. 45 μL of stock solution is transferred to a 384 polypropylene plate (pp-plate). Perform 3-fold, 10-point dilution via transferring 15 μL compound into 30 μL DMSO using a TECAN (EVO200) liquid handler.
(§7) 2.2 Spin plates at room temperature at 1,000 RPM for 1 minute.
(§8) 2.3 Transfer 120 nL of diluted compound from compound source plate into the cell plate.
(§9) 2.4 After compound treatment for 72 hours, perform CTG detection for compound treatment plates as described in “Detection” section.
(§10) 3.1 Plates are removed from incubators and equilibrated at room temperature for 15 minutes.
(§11) 3.2 Thaw the CellTiter Glo reagents and allow to equilibrate to room temperature before the experiment.
(§12) 3.3 Add 40 μL of CellTiter-Glo reagent into each well (at 1:1 to culture medium). Then place the plates at room temperature for 30 min followed by reading on EnVision.
(§13) 4.1 Inhibition activity is calculated following the formula below:
(§14) % Inhibition=100×(LumHC−LumSample)/(LumHC−LumLC) • where HC is obtained from cells treated with 0.1% DMSO only; and LC is obtained from culture medium only.
(§15) 4.2 2. Calculate the IC50 by fitting the Curve using Xlfit (v5.3.1.3), equation 201.
(§16) Y=Bottom+(Top−Bottom)/(1+10^((Log IC50−X)*HillSlope))

[2] = molecular target: T2, EGFR exon 20 FQEA Ins A763_V764 (Ba/F3 cells) (Homo sapiens, UniProt P00533, INS763FQEA); experiment: Inhibitor activity on EGFR-dependent cell growth (CellTiter-Glo, 72 h), Ba/F3 EGFR exon 20 FQEA Ins; conditions: read-out: BaF3 FQEA IC50
T2 construct: expressed in transfected cells; host or cells: Ba/F3 (murine pro-B cells), retroviral transduction, puromycin selection, IL3-independent pool
T2 sequence (P00533 with tags, fused parts or gaps INS763FQEA): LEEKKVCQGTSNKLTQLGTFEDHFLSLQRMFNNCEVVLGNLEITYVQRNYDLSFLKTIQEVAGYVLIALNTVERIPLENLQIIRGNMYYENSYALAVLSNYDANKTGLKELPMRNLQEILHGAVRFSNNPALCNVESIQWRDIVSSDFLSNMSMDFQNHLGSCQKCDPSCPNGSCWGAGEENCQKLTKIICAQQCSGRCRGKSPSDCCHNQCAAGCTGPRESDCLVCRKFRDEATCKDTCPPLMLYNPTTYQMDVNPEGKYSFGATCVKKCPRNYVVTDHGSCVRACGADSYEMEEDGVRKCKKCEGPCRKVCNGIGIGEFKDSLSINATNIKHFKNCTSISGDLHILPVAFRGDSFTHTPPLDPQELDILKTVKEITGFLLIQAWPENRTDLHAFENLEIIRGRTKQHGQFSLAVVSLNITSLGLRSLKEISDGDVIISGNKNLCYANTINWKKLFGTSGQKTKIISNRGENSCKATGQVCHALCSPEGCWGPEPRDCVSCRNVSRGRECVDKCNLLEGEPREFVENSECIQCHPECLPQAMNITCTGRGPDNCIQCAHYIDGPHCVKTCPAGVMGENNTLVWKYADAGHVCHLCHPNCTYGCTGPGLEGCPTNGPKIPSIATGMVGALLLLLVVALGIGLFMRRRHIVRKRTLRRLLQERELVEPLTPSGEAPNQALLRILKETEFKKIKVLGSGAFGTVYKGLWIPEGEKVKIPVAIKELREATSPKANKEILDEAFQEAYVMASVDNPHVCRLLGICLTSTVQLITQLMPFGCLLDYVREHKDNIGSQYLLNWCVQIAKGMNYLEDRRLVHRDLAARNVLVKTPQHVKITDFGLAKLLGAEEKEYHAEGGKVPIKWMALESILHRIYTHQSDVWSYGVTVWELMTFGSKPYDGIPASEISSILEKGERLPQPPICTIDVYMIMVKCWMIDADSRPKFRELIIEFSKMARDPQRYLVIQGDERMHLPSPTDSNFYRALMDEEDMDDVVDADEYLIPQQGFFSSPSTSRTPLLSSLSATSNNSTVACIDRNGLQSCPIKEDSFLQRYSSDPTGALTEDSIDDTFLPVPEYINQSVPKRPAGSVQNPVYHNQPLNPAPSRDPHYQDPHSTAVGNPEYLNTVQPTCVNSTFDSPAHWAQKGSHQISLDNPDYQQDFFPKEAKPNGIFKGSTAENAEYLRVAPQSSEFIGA
From the text: as §1, §2, §3, §4, §5, §6, §7, §8, §9, §10, §11, §12, §13, §14, §15, §16

[3] = molecular target: T3, EGFR WT (Ba/F3 cells) (Homo sapiens, UniProt P00533); experiment: Inhibitor activity on EGFR-dependent cell growth (CellTiter-Glo, 72 h), Ba/F3 EGFR WT; conditions: read-out: BaF3 WT IC50
T3 construct: expressed in transfected cells; host or cells: Ba/F3 (murine pro-B cells), retroviral transduction, puromycin selection, maintained with EGF
T3 sequence (P00533 25-1210): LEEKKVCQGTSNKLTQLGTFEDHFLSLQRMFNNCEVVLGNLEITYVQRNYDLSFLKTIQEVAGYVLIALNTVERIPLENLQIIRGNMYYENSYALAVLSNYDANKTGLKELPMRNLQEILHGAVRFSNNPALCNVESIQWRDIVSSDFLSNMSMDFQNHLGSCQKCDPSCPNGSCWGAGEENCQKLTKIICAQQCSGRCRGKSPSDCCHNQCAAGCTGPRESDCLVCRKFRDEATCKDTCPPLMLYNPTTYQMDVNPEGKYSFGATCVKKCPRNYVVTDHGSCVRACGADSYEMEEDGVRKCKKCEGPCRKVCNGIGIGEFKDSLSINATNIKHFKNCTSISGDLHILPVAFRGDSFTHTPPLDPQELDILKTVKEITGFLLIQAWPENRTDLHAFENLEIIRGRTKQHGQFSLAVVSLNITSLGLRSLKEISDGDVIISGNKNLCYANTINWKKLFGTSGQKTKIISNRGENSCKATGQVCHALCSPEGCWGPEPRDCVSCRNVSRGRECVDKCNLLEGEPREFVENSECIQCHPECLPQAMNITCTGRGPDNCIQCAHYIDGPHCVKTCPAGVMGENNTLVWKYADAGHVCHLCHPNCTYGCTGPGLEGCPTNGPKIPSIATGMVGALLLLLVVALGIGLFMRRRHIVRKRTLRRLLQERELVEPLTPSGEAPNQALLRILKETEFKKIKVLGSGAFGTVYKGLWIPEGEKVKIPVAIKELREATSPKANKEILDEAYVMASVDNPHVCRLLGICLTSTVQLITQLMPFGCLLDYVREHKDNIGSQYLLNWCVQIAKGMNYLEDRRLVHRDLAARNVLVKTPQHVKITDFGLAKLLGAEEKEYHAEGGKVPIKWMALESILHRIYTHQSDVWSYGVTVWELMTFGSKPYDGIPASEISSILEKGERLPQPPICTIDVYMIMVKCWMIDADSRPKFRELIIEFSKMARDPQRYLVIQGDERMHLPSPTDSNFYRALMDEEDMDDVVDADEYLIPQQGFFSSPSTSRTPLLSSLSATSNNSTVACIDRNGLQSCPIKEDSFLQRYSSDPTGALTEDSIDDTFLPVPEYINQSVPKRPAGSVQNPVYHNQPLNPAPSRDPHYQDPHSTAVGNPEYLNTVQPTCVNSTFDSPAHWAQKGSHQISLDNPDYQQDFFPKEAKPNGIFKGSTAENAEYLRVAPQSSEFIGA
From the text: as §1, §2, §3, §4, §5, §6, §7, §8, §9, §10, §11, §12, §13, §14, §15, §16

[4] = molecular target: T4, EGFR exon 20 SVD Ins D770_N771 (Ba/F3 cells) (Homo sapiens, UniProt P00533, INS770SVD); experiment: Inhibitor activity on EGFR-dependent cell growth (CellTiter-Glo, 72 h), Ba/F3 EGFR exon 20 SVD Ins; conditions: read-out: BaF3 SVD IC50
T4 construct: expressed in transfected cells; host or cells: Ba/F3 (murine pro-B cells), retroviral transduction, puromycin selection, IL3-independent pool
T4 sequence (P00533 with tags, fused parts or gaps INS770SVD): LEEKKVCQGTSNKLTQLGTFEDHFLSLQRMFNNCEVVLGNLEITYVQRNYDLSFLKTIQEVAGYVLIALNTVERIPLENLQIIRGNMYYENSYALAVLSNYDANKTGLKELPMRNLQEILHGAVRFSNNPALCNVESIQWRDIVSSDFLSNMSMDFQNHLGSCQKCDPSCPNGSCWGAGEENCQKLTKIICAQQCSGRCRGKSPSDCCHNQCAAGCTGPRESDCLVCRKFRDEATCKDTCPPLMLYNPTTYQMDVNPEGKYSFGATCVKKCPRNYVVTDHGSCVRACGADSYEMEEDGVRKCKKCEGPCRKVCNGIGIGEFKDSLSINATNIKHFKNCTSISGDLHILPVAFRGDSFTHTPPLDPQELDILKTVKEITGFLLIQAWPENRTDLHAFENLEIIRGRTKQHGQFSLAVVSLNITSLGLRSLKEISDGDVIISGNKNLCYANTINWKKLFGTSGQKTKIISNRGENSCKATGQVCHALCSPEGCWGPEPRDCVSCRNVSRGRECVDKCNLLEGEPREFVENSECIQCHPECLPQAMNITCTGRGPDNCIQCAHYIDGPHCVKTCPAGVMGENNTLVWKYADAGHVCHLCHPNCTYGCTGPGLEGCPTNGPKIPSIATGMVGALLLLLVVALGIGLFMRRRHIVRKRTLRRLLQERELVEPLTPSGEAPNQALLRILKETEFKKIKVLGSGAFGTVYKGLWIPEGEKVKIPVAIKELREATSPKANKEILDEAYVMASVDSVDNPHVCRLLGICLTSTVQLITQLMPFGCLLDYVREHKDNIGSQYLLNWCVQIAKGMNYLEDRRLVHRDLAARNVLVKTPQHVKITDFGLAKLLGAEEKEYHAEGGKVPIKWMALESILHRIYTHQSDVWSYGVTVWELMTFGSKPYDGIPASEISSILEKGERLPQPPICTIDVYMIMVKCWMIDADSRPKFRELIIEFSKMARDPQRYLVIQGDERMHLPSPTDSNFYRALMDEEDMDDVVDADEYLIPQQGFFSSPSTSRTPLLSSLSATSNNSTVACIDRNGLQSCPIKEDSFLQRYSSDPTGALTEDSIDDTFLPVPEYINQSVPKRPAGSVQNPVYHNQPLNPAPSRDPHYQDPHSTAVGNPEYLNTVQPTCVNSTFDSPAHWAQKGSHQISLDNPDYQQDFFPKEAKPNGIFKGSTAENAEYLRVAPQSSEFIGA
From the text: as §1, §2, §3, §4, §5, §6, §7, §8, §9, §10, §11, §12, §13, §14, §15, §16

Row | SMILES | IC50 [1] [µM] | IC50 [2] [µM] | IC50 [3] [µM] | IC50 [4] [µM]
1 | COc1c(F)cccc1Nc1c(-c2ccnc3cc(F)cnc23)[nH]c2c1C(=O)NCC2 [Compound 825, 2-(7-fluoro-1,5-naphthyridin-4-yl)-3-[(3-fluoro-2-methoxyphenyl)amino]-1H,5H,6H,7H-pyrrolo[3,2-c]pyridin-4-one] | 0.1 to 1 | 0.1 to 1 | > 1 | < 0.1
2 | COc1ncc2nccc(-c3[nH]c4c(c3Nc3cccc(Cl)c3C)C(=O)NCC4)c2n1 [Compound 793, 3-[(3-chloro-2-methylphenyl)amino]-2-[2-methoxypyrido[3,2-d]pyrimidin-8-yl]-1H,5H,6H,7H-pyrrolo[3,2-c]pyridin-4-one] | < 0.1 | < 0.1 | 0.1 to 1 | < 0.1
3 | COc1ncc2nccc(-c3[nH]c4c(c3Nc3cccc(Cl)c3F)C(=O)NCC4)c2n1 [Compound 799, 3-[(3-chloro-2-fluorophenyl)amino]-2-[2-methoxypyrido[3,2-d]pyrimidin-8-yl]-1H,5H,6H,7H-pyrrolo[3,2-c]pyridin-4-one] | < 0.1 | < 0.1 | 0.1 to 1 | < 0.1
4 | COc1ncc2nccc(-c3[nH]c4c(c3Nc3cccc(Cl)c3C(F)(F)F)C(=O)NCC4)c2n1 [Compound 801, 3-{[3-chloro-2-(trifluoromethyl)phenyl]amino}-2-{2-methoxypyrido[3,2-d]pyrimidin-8-yl}-1H,5H,6H,7H-pyrrolo[3,2-c]pyridin-4-one] | 0.1 to 1 | > 1 | > 1 | > 1
5 | COc1ccc2nccc(-c3[nH]c4c(c3Nc3cccc(Cl)c3OC)C(=O)NCC43CC3)c2n1 [compound 316] | < 0.1 | < 0.1 | 0.1 to 1 | < 0.1
6 | COc1c(Cl)cccc1Nc1c(-c2ccncc2F)[nH]c2c1C(=O)NCC2CCF (stereo not shown) [Compound 473, 3-[(3-chloro-2-methoxyphenyl)amino]-7-(2-fluoroethyl)-2-(3-fluoropyridin-4-yl)-1H,5H,6H,7H-pyrrolo[3,2-c]pyridin-4-one] | 0.1 to 1 | 0.1 to 1 | > 1 | 0.1 to 1
7 | COC(=O)N1CCC2(CC1)CNC(=O)c1c2[nH]c(-c2ccncc2F)c1Nc1cccc(Cl)c1OC [Compound 479, methyl 3′-[(3-chloro-2-methoxyphenyl)amino]-2′-(3-fluoropyridin-4-yl)-4′-oxo-5′,6′-dihydro-1′H-spiro[piperidine-4,7′-pyrrolo[3,2-c]pyridine]-1-carboxylate] | 0.1 to 1 | 0.1 to 1 | > 1 | 0.1 to 1
8 | COc1ncc2nccc(-c3[nH]c4c(c3Nc3cccc(Cl)c3OC)C(=O)N[C@@H](C(F)(F)F)C4)c2n1 [Compound 507, (6R)-3-[(3-chloro-2-methoxyphenyl)amino]-2-{2-methoxypyrido[3,2-d]pyrimidin-8-yl}-6-(trifluoromethyl)-1H,5H,6H,7H-pyrrolo[3,2-c]pyridin-4-one] | < 0.1 | < 0.1 | 0.1 to 1 | < 0.1
9 | COc1c(F)cccc1Nc1c(-c2ccncc2F)[nH]c2c1C(=O)NC[C@@H]2C[C@@H]1CCO1 [Compound 422b, (7S)-3-[(3-fluoro-2-methoxyphenyl)amino]-2-(3-fluoropyridin-4-yl)-7-[(2R)-oxetan-2-ylmethyl]-1H,5H,6H,7H-pyrrolo[3,2-c]pyridin-4-one] | 0.1 to 1 | 0.1 to 1 | > 1 | 0.1 to 1
10 | COc1c(F)cccc1Nc1c(-c2nnc3ccccn23)[nH]c2c1C(=O)NCC2 [compound 239] | > 1 | > 1 | > 1 | > 1
11 | COc1c(F)cccc1Nc1c(-c2ccnc3cnc(C(F)(F)F)nc23)[nH]c2c1C(=O)NCC2 [compound 417] | 0.1 to 1 | 0.1 to 1 | > 1 | 0.1 to 1
12 | CCc1c(F)cccc1Nc1c(-c2ccnc3cnc(OC)nc23)[nH]c2c1C(=O)NCC2 [Compound 791, 3-[(2-ethyl-3-fluorophenyl)amino]-2-[2-methoxypyrido[3,2-d]pyrimidin-8-yl]-1H,5H,6H,7H-pyrrolo[3,2-c]pyridin-4-one] | < 0.1 | 0.1 to 1 | 0.1 to 1 | < 0.1

Second part, the compound after the results:

Row | IC50 [1] [µM] | IC50 [2] [µM] | IC50 [3] [µM] | IC50 [4] [µM] | SMILES
13 | 0.1 to 1 | 0.1 to 1 | > 1 | 0.1 to 1 | COc1c(Cl)cccc1Nc1c(-c2ccncc2F)[nH]c2c1C(=O)NC[C@]21CCN(CC(F)(F)F)C1 [compound 818]
14 | < 0.1 | 0.1 to 1 | 0.1 to 1 | < 0.1 | COc1c(Cl)cccc1Nc1c(-c2ccnc3ccc(OCCN4CCOCC4)nc23)[nH]c2c1C(=O)NCC2 [compound 504, 3-[(3-chloro-2-methoxyphenyl)amino]-2-{6-[2-(morpholin-4-yl)ethoxy]-1,5-naphthyridin-4-yl}-1H,5H,6H,7H-pyrrolo[3,2-c] pyridin-4-one]
15 | 0.1 to 1 | 0.1 to 1 | > 1 | 0.1 to 1 | COc1c(Cl)cccc1Nc1c(-c2ccncc2F)[nH]c2c1C(=O)NC[C@@H]2CCF [compound 813]
16 | 0.1 to 1 | 0.1 to 1 | > 1 | 0.1 to 1 | COCC[C@H]1CNC(=O)c2c1[nH]c(-c1ccncc1F)c2Nc1cccc(F)c1C [compound 824]
17 | > 1 | > 1 | > 1 | > 1 | COc1c(Cl)cccc1Nc1c(-c2ccncc2F)[nH]c2c1C(=O)NC[C@@H]2CCN(C)C [compound 475, (7S)-3-[(3-chloro-2-methoxyphenyl)amino]-7-[2-(dimethylamino)ethyl]-2-(3-fluoropyridin-4-yl)-1H,5H,6H,7H-pyrrolo[3,2-c]pyridin-4-one]
18 | < 0.1 | < 0.1 | 0.1 to 1 | < 0.1 | COc1c(Cl)cccc1Nc1c(-c2ccnc3ccc(OCC4(F)CC4)nc23)[nH]c2c1C(=O)NCC2 [compound 759, 3-[(3-chloro-2-methoxyphenyl)amino]-2-[6-[(1-fluorocyclopropyl)methoxy]-1,5-naphthyridin-4-yl]-1H,5H,6H,7H-pyrrolo[3,2-c]pyridin-4-one]
19 | < 0.1 | < 0.1 | 0.1 to 1 | < 0.1 | COc1cc2nccc(-c3[nH]c4c(c3Nc3cccc(Cl)c3OC)C(=O)NCC4)c2nc1OCCN(C)C [compound 501, 3-[(3-chloro-2-methoxyphenyl)amino]-2-{6-[2-(dimethylamino)ethoxy]-7-methoxy-1,5-naphthyridin-4-yl}-1H,5H,6H,7H-pyrrolo[3,2-c]pyridin-4-one]
20 | > 1 | > 1 | > 1 | > 1 | COc1c(Cl)cccc1Nc1c(-c2ccncc2F)[nH]c2c1C(=O)NC[C@H]2CCN(C)C [compound 486, (7R)-3-[(3-chloro-2-methoxyphenyl)amino]-7-[2-(dimethylamino)ethyl]-2-(3-fluoropyridin-4-yl)-1H,5H,6H,7H-pyrrolo[3,2-c]pyridin-4-one]
21 | > 1 | > 1 | > 1 | > 1 | COc1ccc2ncc(F)c(-c3[nH]c4c(c3Nc3cccc(Cl)c3OC)C(=O)NCC4)c2n1 [compound 829, 3-[(3-chloro-2-methoxyphenyl)amino]-2-(3-fluoro-6-methoxy-1,5-naphthyridin-4-yl)-1H,5H,6H,7H-pyrrolo[3,2-c]pyridin-4-one]
22 | > 1 | > 1 | > 1 | > 1 | COc1c(Cl)cccc1Nc1c(-c2ccnc(C(F)(F)F)n2)[nH]c2c1C(=O)NCC2 [compound 476, 3-[(3-chloro-2-methoxyphenyl)amino]-2-[2-(trifluoromethyl)pyrimidin-4-yl]-1H,5H,6H,7H-pyrrolo[3,2-c]pyridin-4-one]
